Source: ChEMBL document CHEMBL6134851, “Comparative Study on Covalent and Noncovalent Endogenous Albumin-Binding β-Glucuronidase-Activated SN38 Prodrugs for Antitumor Efficacy” (J Med Chem, 2025)
Activity calls are given as the source filed them. No cut-off for these calls is given here.

Assays:
BXPC-3 [1] = test: Antitumor activity against human BXPC-3 cells xenografted in female BALB/cA nude mouse model assessed as suppression of tumor growth by measuring relative tumor proliferation rate at 38 mg/kg, iv measured after 35 days; format: functional, organism-based; conditions: time 35.0 day
[2] = Toxicity in female BALB/cA nude mouse assessed as damage in heart at 15 mg/kg, iv measured after 24 hrs by H and E staining based analysis; format: organism-based; conditions: in vivo
HCT-116 [3] = test: Antitumor activity against human HCT-116 cells xenografted in female BALB/cA nude mouse model assessed as relative tumor proliferation rate at 15 mg/kg, iv administered twice per week measured after 107 days; format: functional, organism-based; conditions: time 107.0 day
[4] = Toxicity in female BALB/cA nude mouse assessed as appearance of fibrosis in lung at 15 mg/kg, iv measured after 24 hrs by H and E staining based analysis; format: organism-based; conditions: in vivo
[5] = Toxicity in female BALB/cA nude mouse assessed as appearance of loss of alveolar architecture at 15 mg/kg, iv BID for 35 days by H and E staining based analysis; format: organism-based; conditions: in vivo, 840 h, time 35 day
[6] = Toxicity in female BALB/cA nude mouse assessed as pulmonary damage at 15 mg/kg, iv BID for 35 days by H and E staining based analysis; format: organism-based; conditions: in vivo, 840 h, time 35 day
[7] = Prodrug release in female BALB/c nude mouse tumor assessed as (S)-4,11-diethyl-4,9-dihydroxy-1,12-dihydro-14H-pyrano[3',4':6,7]indolizino[1,2-b]quinoline-3,14(4H)-dione accumulation at 15 mg/kg measured after 1 hr by HPLC analysis; format: ADME, organism-based, Neoplasm; conditions: in vivo
[8] = Toxicity in female BALB/cA nude mouse assessed as appearance of alveolar wall thickening at 15 mg/kg, iv BID for 35 days by H and E staining based analysis; format: organism-based; conditions: in vivo, 840 h, time 35 day
[9] = Toxicity in female BALB/cA nude mouse assessed as damage in lung at 15 mg/kg, iv measured after 24 hrs by H and E staining based analysis; format: organism-based; conditions: in vivo
[10] = Cmax in female BALB/c mouse at 15 mg/kg measured up to 5 hrs by HPLC analysis; format: ADME, organism-based; conditions: in vivo
[11] = Toxicity in female BALB/cA nude mouse assessed as mortality at 15 mg/kg, iv administered twice per week measured after 107 days; format: organism-based; conditions: in vivo, 2568 h, time 107 day
[12] = Toxicity in female BALB/cA nude mouse assessed as necrosis in tumor tissue at 15 mg/kg, iv measured after 24 hrs by H and E staining based analysis; format: organism-based; conditions: in vivo
[13] = Toxicity in female BALB/cA nude mouse assessed as appearance of fibrosis in heart at 15 mg/kg, iv measured after 24 hrs by H and E staining based analysis; format: organism-based; conditions: in vivo
in vivo = conditions: female, BALB/c, mouse, 15 mg/kg
HCT-116 [14] = test: Antitumor activity against human HCT-116 cells xenografted in female BALB/cA nude mouse model assessed as relative tumor proliferation rate at 15 mg/kg, iv administered twice per week measured on 107 days relative to control; format: functional; conditions: time 107 day
[15] = Toxicity in female BALB/cA nude mouse assessed as effect on body weight loss at 15 mg/kg, iv administered twice per week measured after 107 days; format: organism-based; conditions: in vivo, 2568 h, time 107 day
BXPC-3 [16] = test: Antitumor activity against human BXPC-3 cells xenografted in female BALB/cA nude mouse model assessed as suppression of tumor growth by measuring relative tumor proliferation rate at 38 mg/kg, iv measured after 24 days relative to control; format: functional; conditions: time 24 day

Which Activity (BXPC-3 [1]) does the source give for `CCc1c2c(nc3ccc(OC(=O)N4CCC(N5CCCCC5)CC4)cc13)-c1cc3c(c(=O)n1C2)COC(=O)[C@]3(O)CC` [IRINOTECAN] here?
Its Activity is “inactive”.

And the Activity [2]?
Its Activity is “Toxic”.

And the Activity (HCT-116 [3])?
Its Activity is “inactive”.

And the Activity [4]?
The Activity was “Toxic”.

What about the Activity [5] of the same compound?
Its Activity is “Toxic”.

What about the Activity [6] of the same compound?
The Activity was “Toxic”.

And the Drug metabolism [7]?
Its Drug metabolism is 0.032 % ID/g.

What about the Activity [8] of the same compound?
Its Activity is “Toxic”.

What about the Activity [9] of the same compound?
Its Activity is “Toxic”.

What about the Cmax [10] of the same compound?
Its Cmax is 3040 ng/mL.

And the Activity [11]?
Its Activity is “Non-toxic”.

What about the Activity [12] of the same compound?
Its Activity is “Toxic”.

And the Activity [13]?
The Activity was “Toxic”.

And the AUC(0-t) at 5 h (in vivo)?
Its AUC(0-t) at 5 h is 3120 ng·h/mL.

And the Activity (HCT-116 [14])?
The Activity was 50.36%.

And the Activity [15]?
Its Activity is “Toxic”.

What about the Activity (BXPC-3 [16]) of the same compound?
The Activity was 43.53%.
